Source: the NIST ThermoML archive (doi:10.1016/j.tca.2016.06.022)

Columns and labels:
[1] = 101 kPa, Liquid, Vibrating tube method
[2] = xn = mol fraction of the nth substance listed; details: 101 kPa, Liquid, Vibrating tube method, x2 = 0

NCCN [ethane-1,2-diamine]
[1]
Details	mass density [kg/m3]
288.15 K	901.26
298.15 K	891.9
308.15 K	882.49
323.15 K	868.23
333.15 K	858.6

O [water]
[1]
Details	mass density [kg/m3]
274.15 K	999.899
275.15 K	999.94
276.15 K	999.964
277.15 K	999.972
278.15 K	999.964
279.15 K	999.94
280.15 K	999.901
281.15 K	999.848
282.15 K	999.781
283.15 K	999.699
323.15 K	988.03
333.15 K	983.191

O [water] + NCCN
[2]
Details	mass density [kg/m3]
274.15 K	999.899
275.15 K	999.94
276.15 K	999.964
277.15 K	999.972
278.15 K	999.964
279.15 K	999.94
280.15 K	999.901
281.15 K	999.848
282.15 K	999.781
283.15 K	999.699
323.15 K	988.03
333.15 K	983.191
